Measurements from ChEMBL document CHEMBL4477209, “Indole-2-carboxamide-based MmpL3 Inhibitors Show Exceptional Antitubercular Activity in an Animal Model of Tuberculosis Infection” (J Med Chem, 2016).
Values after ≈ are worked out from the molar mass of the structure shown.

Key:
[1] = tested on: Mycobacterium tuberculosis; assay: Inhibition of MmpL3 in clinical isolates of isoniazid/rifampin resistant Mycobacterium tuberculosis KZN494 after 7 to 14 days by alamar blue assay
[2] = tested on: Mycobacterium tuberculosis; assay: Inhibition of MmpL3 in clinical isolates of isoniazid/rifampin resistant Mycobacterium tuberculosis V2475 after 7 to 14 days by alamar blue assay
[3] = tested on: Mycobacterium tuberculosis; assay: Inhibition of MmpL3 in clinical isolates of extensively drug resistant Mycobacterium tuberculosis TF274 after 7 to 14 days by alamar blue assay
[4] = tested on: Mycobacterium tuberculosis; assay: Inhibition of MmpL3 in clinical isolates of extensively drug resistant Mycobacterium tuberculosis R506 after 7 to 14 days by alamar blue assay
[5] = tested on: Mycobacterium tuberculosis H37Rv; assay: Inhibition of MmpL3 TSK54R mutant in Mycobacterium tuberculosis H37Rv assessed as growth inhibition

C[C@@H]1[C@H]2C[C@@H](C[C@H]1NC(=O)c1cc3c(Cl)cc(Cl)cc3[nH]1)C2(C)C
MIC [1]: 43 µM (≈ 15.7 µg/mL)
MIC [2]: 171 µM (≈ 62.5 µg/mL)
MIC [3]: 21 µM (≈ 7.67 µg/mL)
MIC [4]: 21 µM (≈ 7.67 µg/mL)

O=C(NC1CCCCCCC1)c1cc2c(Cl)cc(Cl)cc2[nH]1
MIC [2]: 11 µM (≈ 3.73 µg/mL)
MIC [3]: 11 µM (≈ 3.73 µg/mL)
MIC [4]: 6 µM (≈ 2.04 µg/mL)

C[C@@H]1[C@H]2C[C@@H](C[C@H]1NC(=O)c1cc3c(F)cc(F)cc3[nH]1)C2(C)C
MIC [1]: 12 µM (≈ 3.99 µg/mL)
MIC [2]: 47 µM (≈ 15.6 µg/mL)
MIC [3]: 6 µM (≈ 1.99 µg/mL)
MIC [4]: 12 µM (≈ 3.99 µg/mL)
MIC [5]: 0.0625 to 0.125 mg/L (≈ 0.188 to 0.376 µM)
